Assay results: patent US20240269158A1, “THERAPEUTIC AGENTS AND METHODS FOR TREATMENT OF BARTONELLOSIS” (THE ADMINISTRATORS OF THE TULANE EDUCATIONAL FUND, priority 2021, published 2024)
Read-outs that look alike come from different tables or passages of the source.

Assays:
[1] = tested on: intracellular B. henselae in DH82 cells; test: DH82 cell-based MBC assay (coculture); design: species or system Bartonella henselae (canine DH82 cells); settings: for MBC: B. henselae, DH82 cell-based assay, 96 hours; for effect of individual therapeutic agent on B. henselae growth: DH82 cell-based system, 16 μg/ml, agents used individually
Description: DH82 are a canine cell line having a macrophage-like morphology. Cells were initially cultured in T75-Flasks (Corning, 430641U) until confluency was reached and were split at a ratio of 1:4 for every 2-3 days. Cells were then seeded into either 24-well cell culture plates (Corning, 3526) for coculture assay or 8-well chamber slides (Millipore #PEGGS0816) for immunofluorescence assays. A total of 50,000 cells were seeded into each well of a 24-well plate or per chamber of an 8-well chamber slide with EMEM with 15% FBS and incubated for 24-48 hours before infections.
Therapeutic agent stocks were prepared in the following solvents: 10 mg/ml of ceftriaxone (USP), doxycycline (Fisher scientific, D9891-1G), gentamicin (Fisher scientific, 1405-41-0), ampicillin (Fisher scientific, 69-52-3) and azlocillin (Flightpath) in sterile cell culture grade water, whereas 5 mg/ml of azithromycin (Sigma, PZ0007-5MG) was dissolved in sterile cell culture grade DMSO. Antibiotics were then aliquoted and stored at either −80° C. or −20° C. until further use. On the day of assay, these stock concentrations were diluted to 1 mg/ml and 100 μg/ml in the respected bacterial culture media for MIC and cell-free, liquid culture MBC assays. For the DH82 cell-based MBC assay, antibiotics were diluted in EMEM media supplemented with 15% heat inactivated FBS.
Bacteria (B. henselae) that were grown in Grace's insect media, were centrifuged at 7000 rpm for 10 min. The supernatant was removed and washed with 1×PBS for three times. After the washes, pellet was resuspended in EMEM media supplemented with 15% heat inactivated FBS. This bacterial suspension was then added to DH82 cells at a multiplicity of infection (MOI) of 1:50 and incubated for 2 hours. After 2 hours, unbound bacteria were removed by washing the cells with only EMEM media 3 times each 15 min wash. Cells were then incubated with EMEM+15% FBS media at 37° C. with 5% CO2 for 48 hours.
After 48 hrs of incubation, the media was removed from the cells and the therapeutic agents that were diluted in EMEM+15% FBS was added. Each therapeutic agent was diluted at 11 different concentrations (16, 8, 4, 2, 1, 0.5, 0.25, 0.125, 0.062, 0.031, 0.0156 μg/ml), as described above and incubated for 96 hours. […] The bactericidal activity of the therapeutic agents were then evaluated by plating the lysed cells on blood agar plates. Briefly, infected DH82 cells were initially washed for 30 min twice to remove the antibiotics that were added. Later, cells were osmotically lysed by adding 1 ml of sterile ice-cold distilled water and incubated for 5 min on ice. The lysed cells were then plated onto blood agar plates and incubated at 37° C. with 5% CO2 for about 10 days to evaluate the growth of viable B. henselae. This experiment was conducted in duplicates and repeated twice with all 6 antibiotics including 11 different concentrations. The untreated infected cells were used as a positive control and untreated uninfected cells served as a negative control. The CFU counts are presented as average±standard deviation.
To evaluate the bactericidal activity and to determine if these antibiotics could penetrate the eukaryotic […], a new DH82 cell-based coculture system was utilized. […] Uninfected cells stained with primary rabbit B. henselaehyperimmunized polyclonal (primary) and goat anti-rabbit IgG Alexa fluor 594 (secondary) antibodies were used as a negative control. As an isotype control, DH82 cells infected with B. henselae and incubated with primary rabbit IgG were used.

[2] = tested on: B. henselae and B. vinsonii; test: Cell-free MBC assay, summary over both species; type: cell-based, Bartonella; settings: 10 μg/ml
Description: Briefly, the bacterial culture that was treated with therapeutic agents for 96 hrs was collected into a 1.5 ml microcentrifuge tubes and centrifuged at 7000 rpm for 10 min. The supernatant was removed, and the bacterial pellet was washed with 1×PBS twice. The bacterial pellet was then resuspended in 100 μL of 1×PBS, plated onto blood agar plates and incubated at 37° C. with 5% CO2 for about 14 days. This assay was repeated three times with all the 6 different antibiotics (azlocillin, azithromycin, ceftriaxone, doxycycline, gentamicin and ampicillin) and at different concentrations.
For this assay, both B. henselae and B. vinsonii were grown in Grace's insect media and were tested against all of the 6 antibiotics (ceftriaxone, doxycycline, gentamicin, azithromycin, azlocillin, ampicillin). […] However, ceftriaxone, gentamicin, azithromycin, and azlocillin were all bactericidal and completely eliminated the growth at concentrations below 10 µg/ml. Table 2 provides comparison of MBCs for B. henselae and B. vinsonii strains in cell-free liquid culture medium determined by incubating the bacteria with antibiotics in a 96-well plate and plating on tryptic soy agar supplemented with 5% sheep blood. Additionally, MBC for B. henselae determined by DH82 cell-based assay (right column) is provided.

[3] = Bartonella henselae, read-out: MBC

| Molecule | MBC [1] | growth on blood agar plates [2] | MBC [1, 3] | effect of individual therapeutic agent on B. henselae growth [1] |
| --- | --- | --- | --- | --- |
| gentamicin | >16 µg/mL | – | – | – |
| CO/N=C(\C(=O)N[C@@H]1C(=O)N2C(C(=O)O)=C(CSc3nc(=O)c(=O)[nH]n3C)CS[C@H]12)c1csc(N)n1 [Ceftriaxone, ceftriaxone] | – | no growth on blood agar plates | > 16 µg/mL | – |
| CC1(C)S[C@@H]2[C@H](NC(=O)[C@H](NC(=O)N3CCNC3=O)c3ccccc3)C(=O)N2[C@H]1C(=O)O [Azlocillin, azlocillin] | – | no growth on blood agar plates | > 16 µg/mL | showed reduced bacterial growth but were unable to completely inhibit the growth |
| CC[C@H]1OC(=O)[C@H](C)[C@@H](O[C@H]2C[C@@](C)(OC)[C@@H](O)[C@H](C)O2)[C@H](C)[C@@H](O[C@@H]2O[C@H](C)C[C@H](N(C)C)[C@H]2O)[C@](C)(O)C[C@@H](C)CN(C)[C@H](C)[C@@H](O)[C@]1(C)O [Azithromycin, azithromycin] | – | no growth on blood agar plates | > 16 µg/mL | showed reduced bacterial growth but were unable to completely inhibit the growth |
